Several values for one entry are separate records, joined by “and”; a condition that tells them apart may be missing. Equal entries are not always repeated.

This note sets out measurements from article PMC9203742 (Nature Communications, 2022).

The test system of assay [1] is mGlu1 construct not given. The assay is described as follows: Fura-2 Ca2+ imaging in HEK293 cells, source data Suppl Fig1, right group (c18-c26); construct not given. It counts as cell-based, rat. As to conditions: single-cell values, cells #15-#20; right group of third block. From the text:
(§1) Supplement 41467_2022_30828_MOESM6_ESM.zip/Ojima et al_source data_Suppl Fig.xlsx, sheet "Suppl Fig1" | column: Glu; NiCl2; CuCl2; ZnCl2; CdCl2; Na2PdCl2; Pd(bpy)

In assay [2] the target is T1, mGlu1 A59H/G266H mutant (Rattus norvegicus, UniProt P23385, A59H/G266H).
T1 construct: expressed in transfected cells; host or cells: HEK293
T1 sequence (P23385 19-1199 A59H/G266H): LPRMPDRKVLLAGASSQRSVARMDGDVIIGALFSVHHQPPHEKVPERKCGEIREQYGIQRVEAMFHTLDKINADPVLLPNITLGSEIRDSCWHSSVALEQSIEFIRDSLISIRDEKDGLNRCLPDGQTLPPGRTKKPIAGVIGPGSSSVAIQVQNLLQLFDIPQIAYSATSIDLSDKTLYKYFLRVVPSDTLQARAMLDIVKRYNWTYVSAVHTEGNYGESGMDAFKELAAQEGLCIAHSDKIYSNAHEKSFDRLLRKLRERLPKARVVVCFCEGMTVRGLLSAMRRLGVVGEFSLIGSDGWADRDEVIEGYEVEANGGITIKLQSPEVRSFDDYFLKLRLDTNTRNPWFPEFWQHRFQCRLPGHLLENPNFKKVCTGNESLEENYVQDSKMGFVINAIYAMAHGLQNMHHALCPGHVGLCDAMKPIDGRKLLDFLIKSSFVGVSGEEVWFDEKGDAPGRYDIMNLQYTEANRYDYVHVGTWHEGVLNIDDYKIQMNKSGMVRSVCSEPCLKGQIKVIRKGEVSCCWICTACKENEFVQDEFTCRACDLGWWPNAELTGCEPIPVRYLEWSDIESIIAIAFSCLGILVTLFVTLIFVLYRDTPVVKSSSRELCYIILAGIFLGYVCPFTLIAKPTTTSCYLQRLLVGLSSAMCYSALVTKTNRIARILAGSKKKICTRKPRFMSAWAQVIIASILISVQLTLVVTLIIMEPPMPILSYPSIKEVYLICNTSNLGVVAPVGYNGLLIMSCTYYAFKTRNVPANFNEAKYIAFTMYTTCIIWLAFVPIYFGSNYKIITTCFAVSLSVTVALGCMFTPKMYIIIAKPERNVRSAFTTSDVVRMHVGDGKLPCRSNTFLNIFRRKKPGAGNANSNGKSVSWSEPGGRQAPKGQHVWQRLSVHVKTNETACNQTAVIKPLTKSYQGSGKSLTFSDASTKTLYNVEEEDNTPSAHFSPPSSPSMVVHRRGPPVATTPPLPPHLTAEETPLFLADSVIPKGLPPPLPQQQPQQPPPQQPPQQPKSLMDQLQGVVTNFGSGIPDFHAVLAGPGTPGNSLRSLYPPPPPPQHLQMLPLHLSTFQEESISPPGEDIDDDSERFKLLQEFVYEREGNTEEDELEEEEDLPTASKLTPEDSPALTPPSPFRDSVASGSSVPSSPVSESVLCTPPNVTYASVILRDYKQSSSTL
Briefly: Fura-2 Ca2+ imaging in HEK293 cells expressing mGlu1 A59H/G266H. It counts as cell-based. Conditions: single-cell values.

The subject of assay [3] is HEK293 cells, vector control. Briefly: Fura-2 Ca2+ imaging in HEK293 cells transfected with control vector (Vec). It counts as cell-based. As to conditions: single-cell values #1-#20.
For assay [4], the system named is mGlu1 construct not given. The assay is described as follows: Fura-2 Ca2+ imaging in HEK293 cells, source data Suppl Fig1, left group (c0-c8); construct not given. As to conditions: single-cell values, cells #15-#20; left group of third block. It counts as cell-based, rat.
Description: as §1

Another assay has as its target T2, WT mGlu1 (Rattus norvegicus, UniProt P23385). Also: test concentration or dose not given here.
T2 construct: expressed in transfected cells; host or cells: HEK293
It is filed as cell-based.

The target in assay [5] is T3, mGlu1 A59H/A265H mutant (Rattus norvegicus, UniProt P23385, A265H/A59H).
T3 construct: expressed in transfected cells; host or cells: HEK293
T3 sequence (P23385 19-1199 A59H/A265H): as the sequence (P23385 19-1199 A59H/G266H) above, with A247H, H248G counted along it
Briefly: Fura-2 Ca2+ imaging in HEK293 cells expressing mGlu1 A59H/A265H. It is filed as cell-based. As to conditions: single-cell values.

Assay [6] addresses T1, mGlu1 A59H/G266H mutant. The assay is described as follows: Fura-2 Ca2+ imaging in HEK293 cells expressing mGlu1 A59H/G266H. It counts as cell-based. Conditions: Fig.1e.
The subject of assay [7] is HEK293 cells, vector control. Briefly: Fura-2 Ca2+ imaging in HEK293 cells transfected with control vector (Vec). It counts as cell-based. Conditions: Fig.1e. The source says: Supplement 41467_2022_30828_MOESM6_ESM.zip/Ojima et al_source data_Main Figure.xlsx, sheet "Fig.1e" | column: Vec
The target of another assay is T4, mGlu1 K61H/N264H mutant (Rattus norvegicus, UniProt P23385, K61H/N264H).
T4 construct: expressed in transfected cells; host or cells: HEK293
T4 sequence (P23385 19-1199 K61H/N264H): as the sequence (P23385 19-1199 A59H/G266H) above, with H41A, K43H, N246H, H248G counted along it
The assay is described as follows: Fura-2 Ca2+ imaging in HEK293 cells expressing mGlu1 K61H/N264H. It is filed as cell-based.

In assay [8] the target is T3, mGlu1 A59H/A265H mutant. Briefly: Fura-2 Ca2+ imaging in HEK293 cells expressing mGlu1 A59H/A265H. It counts as cell-based. As to conditions: Fig.1e.
Another assay concerns the target T5, mGlu1 P58H/N264H mutant (Rattus norvegicus, UniProt P23385, N264H/P58H).
T5 construct: expressed in transfected cells; host or cells: HEK293
Briefly: Fura-2 Ca2+ imaging in HEK293 cells expressing mGlu1 P58H/N264H. It is filed as cell-based.

Assay [9] has as its system mGlu1 construct not given. Briefly: Fura-2 Ca2+ imaging in HEK293 cells, source data Suppl Fig1, middle group (c9-c17); construct not given. It counts as cell-based, rat. Conditions: single-cell values, cells #15-#20; middle group of third block.
Description: as §1

For the next assay, the target named is T6, mGlu1 E60H/N264H mutant (Rattus norvegicus, UniProt P23385, E60H/N264H).
T6 construct: expressed in transfected cells; host or cells: HEK293
T6 sequence (P23385 19-1199 E60H/N264H): as the sequence (P23385 19-1199 A59H/G266H) above, with H41A, E42H, N246H, H248G counted along it
The assay is described as follows: Fura-2 Ca2+ imaging in HEK293 cells expressing mGlu1 E60H/N264H. It is filed as cell-based.

Another assay concerns the target T7, mGlu1 A59H/N264H mutant (Rattus norvegicus, UniProt P23385, A59H/N264H).
T7 construct: expressed in transfected cells; host or cells: HEK293
The assay is described as follows: Fura-2 Ca2+ imaging in HEK293 cells expressing mGlu1 A59H/N264H. It is filed as cell-based.

Another assay concerns the target T8, mGlu1 P57H/N264H mutant (Rattus norvegicus, UniProt P23385, N264H/P57H).
T8 construct: expressed in transfected cells; host or cells: HEK293
Briefly: Fura-2 Ca2+ imaging in HEK293 cells expressing mGlu1 P57H/N264H. It counts as cell-based.
For Ca2+ response (delta ratio), A59H/G266H in this document: test concentration or dose not given here.
For Ca2+ response of individual cells (source data Suppl Fig1), Vec in this document: test concentration or dose not given here.

T5 sequence (P23385 19-1199 P58H/N264H): as the sequence (P23385 19-1199 A59H/G266H) above, with P40H, H41A, N246H, H248G counted along it
T8 sequence (P23385 19-1199 P57H/N264H): as the sequence (P23385 19-1199 A59H/G266H) above, with P39H, H41A, N246H, H248G counted along it
T7 sequence (P23385 19-1199 A59H/N264H): as the sequence (P23385 19-1199 A59H/G266H) above, with N246H, H248G counted along it
T2 sequence (P23385 19-1199): as the sequence (P23385 19-1199 A59H/G266H) above, with H41A, H248G counted along it

Turning to `[Cl][Cu][Cl]` [CuCl2], the “Ca2+ response of individual cells (source data, sheet Suppl Fig1)” value was -0.007831 and 0.008223 and -0.0022 and 0.006269 and -0.002515 and 0.01038 in assay [1]; 0.006485 and -0.01132 and -0.01643 and -0.02029 and -0.01602 and -0.0035 in assay [4]; -0.002923 and 0.002562 and 0.004815 and -0.0036 and -0.004154 and 0.002577 in assay [9]. Further, at mGlu1 A59H/G266H mutant [2], the “Ca2+ response of individual cells (source data Suppl Fig1), A59H/G266H” value was -0.005931 and -0.06262 and 0.006338 and -0.05078 and -0.003546 and -0.0521 and 0.002277 and -0.02358 and 0.04298 and -0.0436 and -0.1049 and -0.001831 and 0.0158 and -0.01046. For the same compound, the “Ca2+ response of individual cells (source data Suppl Fig1), Vec” value in assay [3] is 0.02461 and -0.003092 and 0.01753 and 0.02088 and 0.01475 and -0.003385 and 0.07142 and 0.01504 and 0.02807 and 0.04525 and 0.001746 and 0.01458 and 0.01948 and -0.006131 and 0.04009 and 0.01931 and 0.02889 and 0.01229 and -0.005492 and -0.004385. At WT mGlu1 (Fig.1e), the “Ca2+ response (delta ratio), WT” value came to 0.02902. For the same compound, the “Ca2+ response of individual cells (source data Suppl Fig1), WT” value on WT mGlu1 (single-cell values #1-#20, WT) was 0.02565 and 0.01115 and 0.003838 and 0.01123 and 0.01654 and 0.01648 and -0.004477 and -0.001046 and -0.0009077 and 0.04058 and 0.008923 and 0.1117 and -0.006138 and 0.001246 and 0.02892 and 0.05005 and 0.02387 and -0.0088 and -0.01073 and 0.2624. Further, at mGlu1 A59H/A265H mutant [5], the “Ca2+ response of individual cells (source data Suppl Fig1), A59H/A265H” value is -0.01552 and 0.009746 and -0.01265 and -0.0065 and 0.009708 and -0.002746 and 0.009762 and -0.01072 and 0.004462 and -0.01463 and 0.01478 and 0.0025 and 0.01092 and -0.009138. Further, at mGlu1 A59H/G266H mutant [6], the “Ca2+ response (delta ratio), A59H/G266H” value is -0.01398. Moreover, in assay [7], the “Ca2+ response (delta ratio), Vec” value is given as 0.01757. Also, on mGlu1 K61H/N264H mutant (Fig.1e), the “Ca2+ response (delta ratio), K61H/N264H” value was -0.008802. The “Ca2+ response of individual cells (source data Suppl Fig1), K61H/N264H” value on mGlu1 K61H/N264H mutant (single-cell values, K61H/N264H) was -0.02337 and 0.01083 and -0.01322 and 0.006669 and -0.02188 and -0.01248 and -0.01492 and -0.01697 and -0.01238 and 0.05283 and -0.01893 and -0.01583 and -0.01651 and -0.01879. Also, the “Ca2+ response (delta ratio), A59H/A265H” value at mGlu1 A59H/A265H mutant [8] is recorded as -0.0005365. For the same compound, the “Ca2+ response (delta ratio), P58H/N264H” value on mGlu1 P58H/N264H mutant (Fig.1e) is given as -0.01421. The “Ca2+ response of individual cells (source data Suppl Fig1), P58H/N264H” value on mGlu1 P58H/N264H mutant (single-cell values #1-#20, P58H/N264H) is -0.02928 and 0.02135 and -0.1614 and -0.04317 and -0.03766 and -0.009985 and 0.06338 and -0.01091 and -0.1246 and -0.02604 and 0.008315 and -0.1403 and -0.007362 and 0.04025 and -0.04095 and 0.177 and 0.01632 and 0.001515 and 0.03036 and -0.0111. Also, the “Ca2+ response (delta ratio), E60H/N264H” value at mGlu1 E60H/N264H mutant (Fig.1e) is -0.0006131. The “Ca2+ response of individual cells (source data Suppl Fig1), E60H/N264H” value at mGlu1 E60H/N264H mutant (single-cell values #1-#20, E60H/N264H) was 0.001946 and 0.001985 and -0.004585 and 0.05012 and -0.01047 and -0.007438 and -0.008146 and -0.01882 and 0.02938 and -0.02675 and -0.0009231 and -0.009708 and 0.06405 and 0.006685 and -0.01392 and -0.007992 and -0.007615 and -0.01812 and -0.013 and -0.01895. For the same compound, on mGlu1 A59H/N264H mutant (Fig.1e), the “Ca2+ response (delta ratio), A59H/N264H” value is reported as -0.008971. Moreover, the “Ca2+ response of individual cells (source data Suppl Fig1), A59H/N264H” value at mGlu1 A59H/N264H mutant (single-cell values #1-#20, A59H/N264H) was 0.01442 and -0.1061 and -0.004715 and -0.004738 and -0.008577 and -0.007731 and 0.0007462 and -0.01637 and -0.006738 and -0.004831 and 0.04273 and 0.05223 and 0.05741 and -0.09539 and -0.006538 and 0.01191 and -0.02261 and -0.005077 and -0.03944 and -0.03002. Also, on mGlu1 P57H/N264H mutant (Fig.1e), the “Ca2+ response (delta ratio), P57H/N264H” value is recorded as 0.007634. Besides, at mGlu1 P57H/N264H mutant (single-cell values #1-#20, P57H/N264H), the “Ca2+ response of individual cells (source data Suppl Fig1), P57H/N264H” value is -0.009615 and 0.002477 and 0.01378 and 0.02434 and 0.0008462 and 0.008 and -0.0007 and 0.008062 and 0.01831 and -0.0008538 and 0.01338 and 0.01485 and 0.01 and 0.001692 and -0.005731 and 0.03126 and 0.0103 and 0.01328 and -0.004977 and 0.003977.
